The values below come from patent US10138255B2, “Piperazine derivatives as HIV protease inhibitors” (Merck Sharp & Dohme Corp., priority 2014, dated 2018).

pEC50: −log10 of the molar value.

In the first experiment the test system is HIV-1 (H9IIIB strain). Description: Cell-Based HIV Infection Assay Using a Reporter (MT4-GFP cells). The note with it: Human immunodeficiency virus 1, inflection point (IP) of viral growth inhibition; MT4-GFP cells infected with HIV-1 H9IIIB; 50% normal human serum; mean of at least two independent experiments; read-out: Cell Based IP (50% NHS). Summed up:
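Inflection point from a 4-parameter curve of % viral growth inhibition, normalised to DMSO and triple-drug controls, using the 48 h/24 h ratio of GFP-positive cells (R0). MT4-GFP cells pre-infected 24 h with HIV-1 H9IIIB at low MOI; compounds tested in 50% normal human serum, 0.4% DMSO; mean of ≥2 experiments.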
With `N[C@H](C(=O)Nc1cncc(F)c1CC[C@H]1CN[C@@H]2CCCS(=O)(=O)N1C2)[C@H](c1cncc(F)c1)c1ccc(Cl)c(F)c1` [Example 234, (βS)-4-chloro-N-(4-{2-[(6R,9S)-2,2-dioxido-2-thia-1,7-diazabicyclo[4.3.1]dec-9-yl]ethyl}-5-fluoropyridin-3-yl)-3-fluoro-β-(5-fluoropyridin-3-yl)-L-phenylalaninamide], the pEC50 was 7.30.
As to `COC(=O)N[C@H](C(=O)Nc1ccc(F)c(F)c1CC[C@H]1CN[C@@H]2CCCS(=O)(=O)N1C2)[C@@H](c1ccc(F)cc1)C1C[C@@H](C)O[C@@H](C)C1` (stereo partly drawn) [Example 228, Methyl [(1S,2R)-2-[(2R,6S)-2,6-dimethyltetrahydro-2H-pyran-4-yl]-1-[(2-{2-[(6R,9S)-2,2-dioxido-2-thia-1,7-diazabicyclo[4.3.1]dec-9-yl]ethyl}-3,4-difluorophenyl)carbamoyl]-2-(4-fluorophenyl)ethyl]carbamate], the pEC50 is 8.00.
`COC(=O)N[C@H](C(=O)Nc1cccc(F)c1CCC1CNC2CCCS(=O)(=O)N1C2)[C@@H](c1ccc(Cl)cc1)c1ccnc(OC(C)C)c1` (stereo partly drawn) [Example 122, methyl {(1S,2S)-2-(4-chlorophenyl)-1-({2-[2-(2,2-dioxido-2-thia-1,7-diazabicyclo[4.3.1]dec-9-yl)ethyl]-3-fluorophenyl}carbamoyl)-2-[2-(1-methylethoxy)pyridin-4-yl]ethyl}carbamate]: the pEC50 is 8.17.
Regarding `COC(=O)N[C@H](C(=O)Nc1cccc(F)c1CCC1CNC2CCCS(=O)(=O)N1C2)[C@H](c1cncc(C(F)(F)F)c1)c1ccc(Cl)c(F)c1` (stereo partly drawn) [Example 19, Methyl {(1S,2S)-2-(4-chloro-3-fluorophenyl)-1-({2-[2-(2,2-dioxido-2-thia-1,7-diazabicyclo[4.3.1]dec-9-yl)ethyl]-3-fluorophenyl}carbamoyl)-2-[5-(trifluoromethyl)pyridin-3-yl]ethyl}carbamate], the pEC50 is 8.28.
With `COC(=O)N[C@H](C(=O)Nc1cccc(F)c1CC[C@H]1CN[C@@H]2CCCS(=O)(=O)N1C2)[C@@H](c1ccc(Cl)cc1)c1csc(C(F)(F)F)n1` [Example 252, methyl {(1S,2R)-2-(4-chlorophenyl)-1-[(2-{2-[(6R,9S)-2,2-dioxido-2-thia-1,7-diazabicyclo[4.3.1]dec-9-yl]ethyl}-3-fluorophenyl)carbamoyl]-2-[2-(trifluoromethyl)-1,3-thiazol-4-yl]ethyl}carbamate], the pEC50 was 7.77.
`CCCN[C@H](C(=O)N[C@H]1CCC[C@@H]1CC[C@H]1CN[C@@H]2CCCS(=O)(=O)N1C2)[C@@H](c1ccc(Cl)cc1)C1CCOC(C)(C)C1` (stereo partly drawn) [Example 177, (βR)-4-chloro-β-(2,2-dimethyltetrahydro-2H-pyran-4-yl)-N-[(1S,2R)-2-{2-[(6R,9S)-2,2-dioxido-2-thia-1,7-diazabicyclo[4.3.1]dec-9-yl]ethyl}cyclopentyl]-Nα-propyl-L-phenylalaninamide]: the pEC50 was 6.40.
Still for that read-out and setting: the figure for `COC(=O)N[C@H](C(=O)Nc1cc(F)cc(F)c1CC[C@H]1CN[C@@H]2CCCS(=O)(=O)N1C2)[C@@H](c1ccc(Cl)cc1)C1CCOCC1` [Example 144, methyl [(1S,2R)-2-(4-chlorophenyl)-1-[(2-{2-[(6R,9S)-2,2-dioxido-2-thia-1,7-diazabicyclo[4.3.1]dec-9-yl]ethyl}-3,5-difluorophenyl)carbamoyl]-2-(tetrahydro-2H-pyran-4-yl)ethyl]carbamate] is 7.68.
As for `COC(=O)N[C@H](C(=O)Nc1cccc(F)c1CC[C@H]1CN[C@@H]2CCCS(=O)(=O)N1C2)[C@@H](c1ccc(F)cc1)c1cnc(OC(C)C)nc1` [Example 206, methyl [(1S)-2-[(2-{2-[(6R,9S)-2,2-dioxido-2-thia-1,7-diazabicyclo[4.3.1]dec-9-yl]ethyl}-3-fluorophenyl)amino]-1-{(S)-(4-fluorophenyl)[2-(1-methylethoxy)pyrimidin-5-yl]methyl}-2-oxoethyl]carbamate], the pEC50 is 7.80.
As for `CC1(C)C[C@@H]([C@H](c2ccc(Cl)cc2)[C@H](N)C(=O)Nc2cccc(F)c2CC[C@H]2CN[C@@H]3CCCS(=O)(=O)N2C3)CCO1` [Example 10, (2S,3R)-2-amino-3-(4-chlorophenyl)-3-((S)-2,2-dimethyltetrahydro-2H-pyran-4-yl)-N-(2-(2-((6R,9S)-2,2-dioxido-2-thia-1,7-diazabicyclo[4.3.1]decan-9-yl)ethyl)-3-fluorophenyl)propanamide], the pEC50 was 8.17.
On the same count and under the same terms, the result for `COC(=O)N[C@H](C(=O)Nc1cccc(C(F)(F)F)c1CC[C@H]1CN[C@@H]2CCCS(=O)(=O)N1C2)[C@@H](c1ccc(F)cc1)C1C[C@@H](C)O[C@@H](C)C1` (stereo partly drawn) [Example 203, methyl [(1S,2R)-2-[(2R,6S)-2,6-dimethyltetrahydro-2H-pyran-4-yl]-1-{[2-{2-[(6R,9S)-2,2-dioxido-2-thia-1,7-diazabicyclo[4.3.1]dec-9-yl]ethyl}-3-(trifluoromethyl)phenyl]carbamoyl}-2-(4-fluorophenyl)ethyl]carbamate] reads 6.82; that for `COC(=O)N[C@H](C(=O)Nc1cccc(F)c1CC[C@H]1CN[C@@H]2CCCS(=O)(=O)N1C2)[C@@H](c1ccc(Cl)c(F)c1)C1C[C@@H](C)O[C@@H](C)C1` (stereo partly drawn) [Example 16, Methyl {(1S,2R)-2-(4-chloro-3-fluorophenyl)-2-[(2R,6S)-2,6-dimethyltetrahydro-2H-pyran-4-yl]-1-[(2-{2-[(6R,9S)-2,2-dioxido-2-thia-1,7-diazabicyclo[4.3.1]dec-9-yl]ethyl}-3-fluorophenyl)carbamoyl]ethyl}carbamate], 8.31.
Regarding `N[C@H](C(=O)Nc1cccc(F)c1CCC1CNC2CCCS(=O)(=O)N1C2)[C@H](c1ccc(F)cc1)C1CC(F)(F)C1` (stereo partly drawn) [Example 64, (βS)-β-(3,3-difluorocyclobutyl)-N-{2-[2-(2,2-dioxido-2-thia-1,7-diazabicyclo[4.3.1]dec-9-yl)ethyl]-3-fluorophenyl}-4-fluoro-L-phenylalaninamide], the pEC50 is 6.59.
For `COC(=O)N[C@H](C(=O)Nc1cccc(F)c1CCC1CNC2CCCS(=O)(=O)N1C2)[C@@H](c1ccc(Cl)cc1)c1ccc(C(C)(F)F)nc1` (stereo partly drawn) [Example 116, methyl [(1S,2S)-2-(4-chlorophenyl)-2-[6-(1,1-difluoroethyl)pyridin-3-yl]-1-({2-[2-(2,2-dioxido-2-thia-1,7-diazabicyclo[4.3.1]dec-9-yl)ethyl]-3-fluorophenyl}carbamoyl)ethyl]carbamate], the pEC50 is 7.74.
`CC(C)Oc1cnc([C@H](c2ccc(Cl)cc2)[C@H](N)C(=O)Nc2cccc(F)c2CC[C@H]2CN[C@@H]3CCCS(=O)(=O)N2C3)cn1` [Example 259, (βR)-4-chloro-N-(2-{2-[(6R,9S)-2,2-dioxido-2-thia-1,7-diazabicyclo[4.3.1]dec-9-yl]ethyl}-3-fluorophenyl)-β-[5-(1-methylethoxy)pyrazin-2-yl]-L-phenylalaninamide]: the pEC50 is 8.38.
In the case of `N[C@H](C(=O)Nc1cccc(F)c1CC[C@H]1CNC2CCCS(=O)(=O)N1C2)[C@@H](c1ccc(Cl)cc1)C1CCS(=O)(=O)CC1` (stereo partly drawn) [Example 158, (βR)-4-chloro-β-(1,1-dioxidotetrahydro-2H-thiopyran-4-yl)-N-(2-{2-[(9S)-2,2-dioxido-2-thia-1,7-diazabicyclo[4.3.1]dec-9-yl]ethyl}-3-fluorophenyl)-L-phenylalaninamide], the pEC50 was 6.96.
On to `CC(C)[C@H](c1ccc(Cl)cc1)[C@H](N)C(=O)Nc1cccc(F)c1CCC1CNC2CCCS(=O)(=O)N1C2` (stereo partly drawn) [Example 38, (βR)-4-chloro-N-{2-[2-(2,2-dioxido-2-thia-1,7-diazabicyclo[4.3.1]dec-9-yl)ethyl]-3-fluorophenyl}-β-(1-methylethyl)-L-phenylalaninamide], for which the pEC50 was 7.55.
As to `COC(=O)N[C@H](C(=O)N[C@H]1CCCC[C@@H]1CC[C@H]1CN[C@@H]2CCCS(=O)(=O)N1C2)[C@@H](c1ccc(Cl)cc1)[C@@H]1CCOC(C)(C)C1` [Example 131, methyl [(1S,2R)-2-(4-chlorophenyl)-2-[(4R)-2,2-dimethyltetrahydro-2H-pyran-4-yl]-1-{[(1S,2R)-2-{2-[(6R,9S)-2,2-dioxido-2-thia-1,7-diazabicyclo[4.3.1]dec-9-yl]ethyl}cyclohexyl]carbamoyl}ethyl]carbamate], the pEC50 is 7.62.
For the compound `Cn1nc(C(F)(F)F)cc1[C@H](c1ccc(Cl)c(F)c1)[C@H](N)C(=O)Nc1cncc(F)c1CC[C@H]1CN[C@@H]2CCCS(=O)(=O)N1C2` [Example 268, (βR)-4-chloro-N-(4-{2-[(6R,9S)-2,2-dioxido-2-thia-1,7-diazabicyclo[4.3.1]dec-9-yl]ethyl}-5-fluoropyridin-3-yl)-3-fluoro-β-[1-methyl-3-(trifluoromethyl)-1H-pyrazol-5-yl]-L-phenylalaninamide], the pEC50 was 7.74.
As to `COC(=O)N[C@H](C(=O)N[C@H]1CCCC[C@@H]1CC[C@H]1CN[C@@H]2CCCS(=O)(=O)N1C2)C(c1ccc(F)cc1)c1ccc(F)cc1` [Example 92, methyl [(1S)-1-[bis(4-fluorophenyl)methyl]-2-{[(1S,2R)-2-{2-[(6R,9S)-2,2-dioxido-2-thia-1,7-diazabicyclo[4.3.1]dec-9-yl]ethyl}cyclohexyl]amino}-2-oxoethyl]carbamate], the pEC50 was 7.25.

Staying with this experiment, now noted: inflection point (IP) of viral growth inhibition; MT4-GFP cells infected with HIV-1 H9IIIB; 50% normal human serum; mean of at least two independent experiments; read-out: Cell Based IP (50% NHS).
Regarding `COC(=O)N[C@H](C(=O)Nc1cccc(F)c1CC[C@H]1CN[C@@H]2CCCS(=O)(=O)N1C2)[C@@H](c1ccc(Cl)cc1)C1C[C@@H](C)O[C@@H](C)C1` (stereo partly drawn) [Example 120, methyl {(1S,2R)-2-(4-chlorophenyl)-2-[(2R,4r,6S)-2,6-dimethyltetrahydro-2H-pyran-4-yl]-1-[(2-{2-[(6R,9S)-2,2-dioxido-2-thia-1,7-diazabicyclo[4.3.1]dec-9-yl]ethyl}-3-fluorophenyl)carbamoyl]ethyl}carbamate], the EC50 is recorded as 6.2 nM.
